According to US7138361B2, “Herbicidal heterocycles” (E. I. du Pont de Nemours and Company, priority 2000, dated 2006):

Key:
Type in all cases: in vivo
[1] = system: Surinam grass (Brachiaria decumbens); assay: Test B preemergence
In short: (§1)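 Post-treatment, species sat 13–15 days under greenhouse conditions before visual scoring against controls, 0 (no effect) through 100 (complete control). Application preemergence to sown seeds or postemergence at 1- to 4-leaf stage, using a non-phytotoxic solvent/surfactant formulation.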

[2] = system: crabgrass (Digitaria sanguinalis); assay: Test B preemergence
In short: as §1

[3] = system: giant foxtail (Setaria faberii); assay: Test B preemergence
In short: as §1

[4] = system: morning glory (Ipomoea hederacea); assay: Test B preemergence
In short: as §1

[5] = system: barnyardgrass (Echinochloa crus-galli); assay: Test B preemergence
In short: as §1

[6] = system: corn (Zea mays); assay: Test B preemergence
In short: as §1

[7] = system: pigweed (Amaranthus retroflexus); assay: Test B preemergence
In short: as §1

[8] = system: cocklebur (Xanthium strumarium); assay: Test B preemergence
In short: as §1

[9] = system: lambsquarters (Chenopodium album); assay: Test B preemergence
In short: as §1

[10] = system: rice (Oryza saliva); assay: Test B preemergence
In short: as §1

[11] = system: Surinam grass (Brachiaria decumbens); assay: Test B postemergence; conditions: 13 to 15 days
In short: as §1

[12] = system: crabgrass (Digitaria sanguinalis); assay: Test B postemergence; conditions: 13 to 15 days
In short: as §1

[13] = system: blackgrass (Alopecurus myosuroides); assay: Test B postemergence; conditions: 13 to 15 days
In short: as §1

[14] = system: giant foxtail (Setaria faberii); assay: Test B postemergence; conditions: 13 to 15 days
In short: as §1

[15] = system: wild oat (Avena fatua); assay: Test B postemergence; conditions: 13 to 15 days
In short: as §1

[16] = system: morning glory (Ipomoea hederacea); assay: Test B postemergence; conditions: 13 to 15 days
In short: as §1

[17] = system: barnyardgrass (Echinochloa crus-galli); assay: Test B postemergence; conditions: 13 to 15 days
In short: as §1

[18] = system: corn (Zea mays); assay: Test B postemergence; conditions: 13 to 15 days
In short: as §1

[19] = system: pigweed (Amaranthus retroflexus); assay: Test B postemergence; conditions: 13 to 15 days
In short: as §1

[20] = system: cocklebur (Xanthium strumarium); assay: Test B postemergence; conditions: 13 to 15 days
In short: as §1

[21] = system: wheat (Triticum aestivum); assay: Test B postemergence; conditions: 13 to 15 days
In short: as §1

[22] = system: velvetleaf (Abutilon theophrasti); assay: Test B postemergence; conditions: 13 to 15 days
In short: as §1

[23] = system: lambsquarters (Chenopodium album); assay: Test B postemergence; conditions: 13 to 15 days
In short: as §1

[24] = system: smallflower flatsedge (Cyperus difformis); assay: Test B flooded paddy test; conditions: Rate 1000 g/ha, scale of 0 to 100 where 0 is no effect and 100 is complete control, visually evaluated after 13 to 15 days
Method: (§2) At the same time, plants selected from these crop and weed species and also blackgrass (Alopecurus myosuroides), wheat (Triticum aestivum) and wild oat (Avena fatua) were treated with postemergence applications of test chemicals formulated in the same manner. Plants ranged in height from 2 to 18 cm (1- to 4-leaf stage) for postemergence treatments. Plant species in the flooded paddy test consisted of rice (Oryza saliva), smallflower flatsedge (Cyperus difformis), duck salad (Heteranthera limosa) and barnyardgrass (Echinochloa crus-galli) grown to the 2-leaf stage for testing. Treated plants and controls were maintained in a greenhouse for 13 to 15 days, after which time all species were compared to controls and visually evaluated. Plant response ratings, summarized in Table B, are based on a scale of 0 to 100 where 0 is no effect and 100 is complete control. A dash (-) response means no test result.

[25] = system: duck salad (Heteranthera limosa); assay: Test B flooded paddy test; conditions: Rate 1000 g/ha, scale of 0 to 100 where 0 is no effect and 100 is complete control, visually evaluated after 13 to 15 days
Method: as §2

[26] = system: barnyardgrass (Echinochloa crus-galli); assay: Test B flooded paddy test; conditions: Rate 1000 g/ha, scale of 0 to 100 where 0 is no effect and 100 is complete control, visually evaluated after 13 to 15 days
Method: as §2

[27] = system: rice (Oryza saliva); assay: Test B flooded paddy test; conditions: Rate 1000 g/ha, scale of 0 to 100 where 0 is no effect and 100 is complete control, visually evaluated after 13 to 15 days
Method: as §2

[28] = system: velvetleaf (Abutilon theophrasti); assay: Test B preemergence
In short: as §1

[29] = system: smallflower flatsedge (Cyperus difformis); assay: Test C flooded paddy test; conditions: for Flatsedge plant response rating: Flooded Paddy, scale 0 to 100, 0 no effect, 100 complete control; for Plant response rating, Flatsedge: flooded paddy test, scale 0 to 100 (0 no effect, 100 complete control)
In short: (§3)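 Flooded paddy, 2-leaf stage at treatment. Readout: visual % control vs untreated, 0–100, at 12–14 d in greenhouse.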

[30] = system: duck salad (Heteranthera limosa); assay: Test C flooded paddy test; conditions: for Ducksalad plant response rating: Flooded Paddy, scale 0 to 100, 0 no effect, 100 complete control; for Plant response rating, Ducksalad: flooded paddy test, scale 0 to 100 (0 no effect, 100 complete control)
In short: as §3

[31] = system: barnyardgrass (Echinochloa crus-galli); assay: Test C flooded paddy test; conditions: for Barnyardgrass plant response rating: Flooded Paddy, scale 0 to 100, 0 no effect, 100 complete control; for Plant response rating, Barnyardgrass: flooded paddy test, scale 0 to 100 (0 no effect, 100 complete control)
In short: as §3

[32] = system: rice (Oryza saliva); assay: Test C flooded paddy test; conditions: for Rice plant response rating: Flooded Paddy, scale 0 to 100, 0 no effect, 100 complete control; for Plant response rating, Rice: flooded paddy test, scale 0 to 100 (0 no effect, 100 complete control)
In short: as §3

[33] = Preemergence, Rate 500 g/ha, scale 0 to 100, 0 no effect, 100 complete control
[34] = preemergence, Rate 125 g/ha, scale 0 to 100, 0 no effect, 100 complete control
[35] = Rate 125 g/ha, scale 0 (no effect) to 100 (complete control)
[36] = Rate 500 g/ha, scale 0 to 100, 0 is no effect, 100 is complete control
[37] = preemergence, Rate 125 g/ha, scale of 0 to 100 where 0 is no effect and 100 is complete control, 13 to 15 days

O=C1C(n2cccn2)SCN1c1cccc(C(F)(F)F)c1 (centres unmarked) [Compound 18]
20: Plant response rating, Cocklebur [20, 36] | Plant response rating, Velvetleaf [22, 36]
10: Plant response rating, Morningglory [16, 35] | Plant response rating, Morningglory [16, 36]
0: Plant response rating, Surinam grass [1, 33] | Plant response rating, Surinam grass [1, 34] | Plant response rating, Crabgrass [2, 33] | Plant response rating, Crabgrass [2, 34] | Plant response rating, Foxtail, Giant [3, 33] | Plant response rating, Foxtail, Giant [3, 34] | Plant response rating, Morningglory [4, 33] | Plant response rating, Morningglory [4, 34] | Plant response rating, Barnyardgrass [5, 33] | Plant response rating, Barnyardgrass [5, 34] | Plant response rating, Corn [6, 33] | Plant response rating, Corn [6, 34] | Plant response rating, Pigweed [7, 33] | Plant response rating, Pigweed [7, 34] | Plant response rating, Cocklebur [8, 33] | Plant response rating, Cocklebur [8, 34] | Plant response rating, Lambsquarters [9, 34] | Plant response rating, Rice [10, 33] | Plant response rating, Rice [10, 34] | Plant response rating, Surinam grass [11, 35] | Plant response rating, Surinam grass [11, 36] | Plant response rating, Crabgrass [12, 35] | Plant response rating, Crabgrass [12, 36] | Plant response rating, Blackgrass [13, 35] | Plant response rating, Blackgrass [13, 36] | Plant response rating, Foxtail, Giant [14, 35] | Plant response rating, Foxtail, Giant [14, 36] | Plant response rating, Wild Oat [15, 35] | Plant response rating, Wild Oat [15, 36] | Plant response rating, Barnyardgrass [17, 35] | Plant response rating, Barnyardgrass [17, 36] | Plant response rating, Corn [18, 35] | Plant response rating, Corn [18, 36] | Plant response rating, Pigweed [19, 35] | Plant response rating, Pigweed [19, 36] | Plant response rating, Cocklebur [20, 35] | Plant response rating, Wheat [21, 35] | Plant response rating, Wheat [21, 36] | Plant response rating, Velvetleaf [22, 35] | Plant response rating, Flatsedge [24] | Plant response rating, Ducksalad [25] | Plant response rating, Barnyardgrass [26] | Plant response rating, Rice [27]
70: Plant response rating, Lambsquarters [23, 36]
60: Plant response rating, Lambsquarters [23, 35]

CC(C)(C)c1ccn(C2CCN(c3ccc(F)c(Cl)c3)C2=O)n1 (centres unmarked) [Compound 46]
50: Ducksalad plant response rating ([30]; Rate 500 g/ha) | Barnyardgrass plant response rating ([31]; Rate 250 g/ha)
70: Plant response rating, Lambsquarters [23, 36] | Plant response rating, Ducksalad [25]
60: Barnyardgrass plant response rating ([31]; Rate 500 g/ha)
90: Plant response rating, Rice [27] | Flatsedge plant response rating ([29]; Rate 250 g/ha) | Plant response rating, Flatsedge ([29]; Rate 125 g/ha)
100: Plant response rating, Pigweed [7, 33] | Plant response rating, Pigweed [7, 37] | Plant response rating, Lambsquarters [9, 33] | Plant response rating, Lambsquarters [9, 37] | Plant response rating, Barnyardgrass [26] | Flatsedge plant response rating ([29]; Rate 500 g/ha)
80: Plant response rating, Barnyardgrass [5, 33] | Plant response rating, Flatsedge ([29]; Rate 62 g/ha)
40: Rice plant response rating ([32]; Rate 500 g/ha)
20: Ducksalad plant response rating ([30]; Rate 250 g/ha) | Plant response rating, Barnyardgrass ([31]; Rate 125 g/ha)
0: Plant response rating, Surinam grass [1, 33] | Plant response rating, Surinam grass [1, 37] | Plant response rating, Crabgrass [2, 33] | Plant response rating, Crabgrass [2, 37] | Plant response rating, Foxtail, Giant [3, 33] | Plant response rating, Foxtail, Giant [3, 37] | Plant response rating, Morningglory [4, 37] | Plant response rating, Barnyardgrass [5, 37] | Plant response rating, Corn [6, 33] | Plant response rating, Corn [6, 37] | Plant response rating, Cocklebur [8, 33] | Plant response rating, Cocklebur [8, 37] | Plant response rating, Velvetleaf [28, 33] | Plant response rating, Velvetleaf [28, 37] | Plant response rating, Rice [10, 33] | Plant response rating, Rice [10, 37] | Plant response rating, Surinam grass [11, 35] | Plant response rating, Surinam grass [11, 36] | Plant response rating, Crabgrass [12, 35] | Plant response rating, Crabgrass [12, 36] | Plant response rating, Blackgrass [13, 35] | Plant response rating, Blackgrass [13, 36] | Plant response rating, Foxtail, Giant [14, 35] | Plant response rating, Foxtail, Giant [14, 36] | Plant response rating, Wild Oat [15, 35] | Plant response rating, Wild Oat [15, 36] | Plant response rating, Morningglory [16, 35] | Plant response rating, Morningglory [16, 36] | Plant response rating, Barnyardgrass [17, 35] | Plant response rating, Barnyardgrass [17, 36] | Plant response rating, Corn [18, 35] | Plant response rating, Corn [18, 36] | Plant response rating, Pigweed [19, 35] | Plant response rating, Pigweed [19, 36] | Plant response rating, Cocklebur [20, 35] | Plant response rating, Cocklebur [20, 36] | Plant response rating, Wheat [21, 35] | Plant response rating, Wheat [21, 36] | Plant response rating, Velvetleaf [22, 35] | Plant response rating, Velvetleaf [22, 36] | Plant response rating, Lambsquarters [23, 35] | Plant response rating, Ducksalad ([30]; Rate 62 g/ha) | Plant response rating, Ducksalad ([30]; Rate 125 g/ha) | Plant response rating, Barnyardgrass ([31]; Rate 62 g/ha) | Rice plant response rating ([32]; Rate 250 g/ha) | Plant response rating, Rice ([32]; Rate 62 g/ha) | Plant response rating, Rice ([32]; Rate 125 g/ha)

COc1cccc(N2CCC(n3ccc(C(C)(C)C)n3)C2=O)c1 (centres unmarked) [Compound 57]
90: Plant response rating, Rice [27]
100: Plant response rating, Flatsedge [24] | Plant response rating, Ducksalad [25] | Plant response rating, Barnyardgrass [26]
